Consider four molecules from patent US8603737B2, “Methods for identifying HCV protease inhibitors” (priority 2008, dated 2013).

Test [1] concerns the target T1, NS3 protease self-cleavage in Huh-7-Luc-Neo-ET cells (Hepatitis C virus genotype 1b, UniProt Q9WMX2, E1202G/T1280I).
T1 construct: host or cells: Huh-7-Luc-Neo-ET replicon cells (human hepatoma Huh7)
It is filed as cell-based, HCV. The conditions noted are these: wild type replicon cells. Here is the method: Inhibition of Protease Self Cleavage
The remaining wells were rinsed 2× with PBS then fed with Replicon Media and returned to the incubator.
Cell lysates were separated by SDS-Page (4-20%) and transferred to Immobilon-P PVDF membrane (Millipore Corporation, MA) and blotted with polyclonal anti NS3 antibody (Bioenza, Calif.). Blots were scanned on an Odyssey infrared scanner from Licor and the FL band and cleavage products were quantified separately using the Licor software provided with the scanner. The cleavage product was calculated as a percentage of the total NS3 in each sample and then normalized to the DMSO control so that the DMSO control reflects 100% activity.

Test [2] relates to HCV NS3/4A genotypes 1a, 1b, 2a, and 3a. The experiment in a line: Mass spectrometric analysis of covalent modification, NS3/4A genotypes. Type of test: binding. As to conditions: 3 hours reaction, each genotype 1a, 10-fold excess of compound. The procedure:
Mass spectrometric analysis of HCV wild type or HCV variants (C159S, A156S, R155K, D168A, A156T, and D168V) in the presence of test compound was performed. 100 pmols of HCV wild type (Bioenza Calif.) was incubated with test compound for 1 hr and 3 hrs at 10-fold excess of test compound to protein. 1 μL aliquots of the samples (total volume of 4.24 μL) were diluted with 10 μL of 0.1% TFA prior to micro C4 ZipTipping directly onto the MALDI target using Sinapinic acid as the desorption matrix (10 mg/mL in 0.1% TFA:Acetonitrile 50:50). Analyses were performed on a Shimadzu Biotech Axima TOF (Shimadzu Instruments) matrix-assisted-laser desorption/ionization Time-of-Flight (MALDI-TOF) mass spectrometer. The same procedure was carried out on 100 pmols of HCV C159S mutant of HCV protease for 3 hrs at 10-fold excess of test compound to protein.
In addition, mass spectrometric analysis of HCV NS3/4A genotypes 1a, 1b, 2a, and 3a in the presence of test compound was performed using the above protocol.

Test [3] has as its system HCV RNA replicon in cell line ET (luc-ubi-neo/ET), human Huh7 hepatoma. The experiment in a line: Luciferase reporter replicon assay (Example 5, Method C). It is filed as cell-based. The conditions noted are these: Hepatitis C virus, Huh-7, 72 hr, EC90, read-out: Inhibition, Replicon, EC90 value. The procedure:
Method C: Luciferase Reporter Assay Protocol
The compounds were assayed to evaluate the antiviral activity and cytotoxicity of compounds using replicon-derived luciferase activity. This assay used the cell line ET (luc-ubi-neo/ET), which is a human Huh7 hepatoma cell line that contains an HCV RNA replicon with a stable luciferase (Luc) reporter and three cell culture-adaptive mutations. The ET cell line was grown in a 5% CO2 incubator at 37° C. in Dulbecco's modified essential media (DMEM), supplemented with 2 mM L-glutamine (“1%”), nonessential amino acids, 100 U of penicillin/mL, 100 μg of streptomycin/mL (“1%”), 10% fetal bovine serum and 400 μg/mL G418 (Geneticin; Invitrogen).
All cell culture reagents were obtained from Invitrogen (Carlsbad). Cells were trypsinized (1% trypsin:EDTA) and plated out at 5×10^3 cells/well in white 96-well assay plates (Costar) dedicated to cell number (cytotoxicity) or antiviral activity assessments. Test compounds were added at six 3-fold serial dilutions each and the assay was run in DMEM, 5% FBS, 1% pen-strep, 1% glutamine, 1% non essential amino acid. Human interferon alpha-2b (PBL Biolabs, New Brunswick, N.J.) was included in each run as a positive control compound. Cells were processed 72 hr post test compound addition when the cells were still subconfluent. Antiviral activity was measured by analyzing replicon-derived luciferase activity using the Steady-Glo Luciferase Assay System (Promega, Madison, Wis.) according to manufacturer's instruction. The number of cells in each well was determined by Cell Titer Blue Assay (Promega). Compound profile was derived by calculating applicable EC50 (effective concentration inhibiting virus replication by 50%), EC90 (effective concentration inhibiting virus replication by 90%), IC50 (concentration decreasing cell viability by 50%) and SI50 (selective index: […]) values.
In general terms: Reporter assays use an easily measured gene product as a stand-in for the process of interest.

Test [4] has as its target T2, D168V mutant of the HCV NS3/4A 1b protease enzyme (Hepatitis C virus genotype 1b, UniProt P26663, D1194V).
T2 construct: 10× stocks of NS3/4A protease enzyme from Bioenza; purchased Bioenza (Mountain View, Calif.)
The experiment in a line: HCV protease FRET assay, D168V mutant. The conditions noted are these: read-out: Inhibition, HCV D168V (IC50). It is filed as biochemical. The procedure: HCV Protease FRET Assay for Mutated NS3/4A 1b Enzymes
The protocol is a modified FRET-based assay (v—02) from In Vitro Resistance Studies of HCV Serine Protease Inhibitors, 2004, JBC, vol. 279, No. 17, pp 17508-17514. Inherent potency of compounds was assessed against A156S, A156T, D168A, and D168V mutants of the HCV NS3/4A 1b protease enzyme as follows:
Assay buffer: 2% CHAPS, 50 mM Tris pH 7.5, 50% glycerol, 2 μM M-2235 (Bachem) substrate. In a 50 μl reaction, add 49 μl assay buffer, 1 μl (1 U) HCV serine protease (Bioenza). Incubate 20 minutes at room temperature. The plate was read at either 350/460 nm (excitation/emission) on a fluorescent micro-plate reader or monitored at one-minute intervals to achieve the kinetic curve.
10× stocks of NS3/4A protease enzyme from Bioenza (Mountain View, Calif.) and 1.13×5-FAM/QXL™520 FRET peptide substrate from Anaspec (San Jose, Calif.) were prepared in 50 mM HEPES, pH 7.8, 100 mM NaCl, 5 mM DTT and 20% glycerol. 5 μL of each enzyme were pre-incubated in a Corning (#3573) 384-well, black, non-treated microtiter plate (Corning, N.Y.) for 30 min at 25° C. with a 0.5 μL volume of 50% DMSO and serially diluted compounds prepared in 50% DMSO. Protease reactions were started with the addition of 45 μL of the FRET substrate and monitored for 120 minutes at λex487/λem514 through Quad^4 monochromoters in a Synergy^4 plate reader from BioTek (Winooski, Vt.). […] Initial velocity (0 minutes to 30+ minutes) from each reaction was determined from the slope of a plot of relative fluorescence units vs time (minutes) and then plotted against inhibitor concentration to estimate IC50 from log[Inhibitor] vs Response, Variable Slope model in GraphPad Prism from GraphPad Software (San Diego, Calif.). […]
The following protocol was used to generate “apparent” IC50 (IC50—APP)) values as depicted in Table 3, below. […] Protease reactions were immediately started after enzyme addition with the addition of 45 μL of the FRET substrate and monitored for 60-90 minutes at λex485/λem520 in a Synergy^4 plate reader from BioTek (Winooski, Vt.). […]

Test [5] addresses T3, NS3 protease R155K self-cleavage in modified replicon system (Hepatitis C virus genotype 1b, UniProt Q9WMX2, E1202G/R1181K/T1280I).
T3 construct: expressed in transfected cells; host or cells: replicon cells carrying the R155K-mutated pFK-I389-luc-ubi-neo-NS3-3'ET replicon
Briefly: Inhibition of protease self cleavage in R155K modified replicon system (washout). It is filed as cell-based, HCV. The conditions noted are these: R155K modified replicon system (FIG. 6). Here is the method: Constructs containing clinically relevant mutations were generated by performing site-directed mutagenesis on the pFK-1389-luc-ubi-neo-NS3-3′ET plasmid (ReBLikon Gmbh (Heidelberg, Germany)). using the QuickChange II Site-Directed Mutagenesis Kit (Stratagene, La Jolla, Calif.) according to manufacturer's directions and with the primers described in Table 2.
Huh-7-Luc-Neo-ET cells were plated in Replicon Assay Medium (RPMI supplemented with 5% FBS, 1× non-essential amino acids and pen/strep) at a density of 1×10^5 cells/well in 12 well plates. Eight hours later the media was removed and replaced with 1 mL media containing test compound (5 wells per compound) and 0.02% DMSO and the cells were returned to the incubator overnight. […]
Cell lysates were separated by SDS-Page (4-20%) and transferred to Immobilon-P PVDF membrane (Millipore Corporation, MA) and blotted with polyclonal anti NS3 antibody (Bioenza, Calif.). Blots were scanned on an Odyssey infrared scanner from Licor and the FL band and cleavage products were quantified separately using the Licor software provided with the scanner. The cleavage product was calculated as a percentage of the total NS3 in each sample and then normalized to the DMSO control so that the DMSO control reflects 100% activity. […]
A general note: In antiviral work, replicon cells carry a viral genome segment that copies itself.

As a reminder, the EC90 is the concentration at which the effect reaches the 90% level. As a reminder, the IC50 is the concentration needed to halve the response being measured.

As to `CCC[C@H](NC(=O)[C@@H]1[C@H]2CCC[C@H]2CN1C(=O)[C@@H](NC(=O)[C@@H](NC(=O)c1cnccn1)C1CCCCC1)C(C)(C)C)C(=O)C(=O)NC1CC1` [Compound 1, reference compound], the “return of NS3 self-cleavage activity after drug removal” value in test [1] (16 hours incubation, in as little as 4 hours after drug removal) is reported as “virtually complete return of activity”.
On to `C=C[C@@H]1C[C@]1(NC(=O)[C@@H]1C[C@@H](Oc2nccc3cc(OC)ccc23)CN1C(=O)[C@H](CCC(=O)C=C(C)C)NC(=O)OC(C)(C)C)C(=O)NS(=O)(=O)C1CC1` [Compound 5], for which the “covalent modification of HCV NS3/4A (mass spectrometry)” value in test [2] is recorded as “measurable covalent modification”.
Turning to `C=C[C@@H]1C[C@]1(NC(=O)[C@@H]1C[C@@H]2CN1C(=O)[C@H](CCC(=O)C=C(C)C)NC(=O)OCCC/C=C/c1ccc3ccnc(c3c1)O2)C(=O)NS(=O)(=O)C1CC1` [Compound 6], the EC90 in test [3] is less than 10 nM.
`C=CC(=O)N[C@H](C)C(=O)N1C[C@H](Oc2cc(-c3ccccc3)nc3cc(OC)ccc23)C[C@H]1C(=O)N[C@]1(C(=O)NS(=O)(=O)C2CC2)C[C@H]1C=C` [Compound 7]: the IC50 in test [4] was in the range of 100 to 1000 nM. The “inhibition of NS3 self-cleavage after compound removal” value in test [1] (up to 24 hours after compound removal (FIG. 5)) is “virtually complete inhibition”. In test [5], the “duration of inhibition of mutant protease activity after compound removal” value is “at least 24 hours”.
